Measured values published in patent US9540362B2, “Sphingosine-1-phosphate receptor agonists, methods of preparing the same, and pharmaceutical compositions containing the same as an active agent” (LG LIFE SCIENCES LTD., priority 2013, dated 2017).

Tests used:
[1] = biological target: human sphingosine-1-phosphate 1 receptor (S1P1 receptor) (Homo sapiens, UniProt P21453); assay: Ca2+ inducing ability using CHO cells overexpressing human S1P1 receptor (Calcium 5 assay kit); type: cell-based; conditions: CHO cells overexpressing human S1P1, calcium RFU; S1P 1 μM = 100%
Sequence of human sphingosine-1-phosphate 1 receptor (S1P1 receptor) (P21453 whole entry): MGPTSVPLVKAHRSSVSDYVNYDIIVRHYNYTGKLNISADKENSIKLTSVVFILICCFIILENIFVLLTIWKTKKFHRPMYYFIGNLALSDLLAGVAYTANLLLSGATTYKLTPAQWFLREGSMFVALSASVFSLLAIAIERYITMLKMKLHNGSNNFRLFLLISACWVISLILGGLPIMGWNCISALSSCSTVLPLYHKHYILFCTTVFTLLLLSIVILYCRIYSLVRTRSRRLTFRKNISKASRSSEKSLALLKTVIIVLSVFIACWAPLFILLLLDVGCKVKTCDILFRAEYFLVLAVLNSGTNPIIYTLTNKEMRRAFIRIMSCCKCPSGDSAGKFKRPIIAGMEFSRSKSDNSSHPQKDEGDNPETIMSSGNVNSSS
Text: Evaluation of Ca^2+ inducing ability of test compound using a cell line expressing human sphingosine-1-phosphate
CHO (Chinese hamster ovary) cells which overexpress human sphingosine-1-phosphate 1 receptor (S1P1 receptor) that react with sphingosine-1-phosphate (S1P) are used for a functional test method wherein an increase of calcium indicates a therapeutic efficacy of an agonist compound.
To prepare CHO cells which overexpress human S1P1˜S1P5, human clones for each subtype having HA at the N terminal residue (S1P1: EDG010TN00, S1P2: EDG020TN00, S1P3: EDG030TN00, S1P4: EDG060TN00, S1P5: EDG080TN00) were purchased from the Missouri S&T cDNA Resource Center and co-transfected with G-protein alpha subunit (G-alpha-16) into CHO-K1 cells.
A calcium measurement kit (Calcium 5 assay kit, Molecular Devices) was used to select an agonist compound. The principle of calcium measurement is that calcium-sensitive dyes are applied to cells, they enter into the cytoplasm of the cells during incubation, and when a ligand binds to a certain receptor to release calcium into the cytoplasm, the dyes bind to said calcium to induce fluorescence which is measured. This test method can sensitively measure only the intracellular calcium concentration change because any change that may occur outside the cells is masked by a masking dye.
The experimental procedure was as follows. One day before calcium measurement, CHO cells overexpressing hS1P1˜hS1P5 were dispensed into a 96-well plate (bottom clear black well) in 3×10^4 cells per well and cultured at 37° C. under 5% carbon dioxide condition for one day. 100 μl of calcium dyes mixed with Assay Buffer (1×HBSS, 20 mM HEPES, 2.5 mM probenecid, pH 7.4) were dispensed into culture solution in well and cultured at 37° C. for one hour. Test compounds were dissolved in 100% DMSO to prepare 1 μl solution per each concentration, and each solution was mixed with 199 μl Assay Buffer such that the concentrations were 50, 5, 0.5, 0.05, 0.005 and 0.0005 μM. The plate cultured with the calcium dyes was put into FlaxstationII (Molecular Devices), and the prepared test compounds (the final concentrations of the test compounds: 10, 1, 0.1, 0.01, 0.001 and 0.0001 μM) were programmed to be automatically inoculated in 50 μl per each well. For a total of 90 seconds, RFU (relative fluorescence unit) values were measured. The value of Reference (S1P substance 1 μM) deducting the blank value was set as 100%, and EC50 values of the test compounds were calculated by prism.

[2] = system: lymphocytes in blood; assay: Rat peripheral blood lymphocyte decrease; type: in vivo; conditions: male SD rat, administered once, 1 mg/kg, 6 hours after administration
Procedure: Evaluation of Rat Peripheral Blood Lymphocyte Decrease
Lymphocyte decrease in blood by S1P1 agonist was evaluated using a male SD rat. After adapting a rat weighing about 250 g to a breeding facility for one week, a test compound was administered to it once. At 3 hours, 6 hours, 24 hours and 48 hours after administration, blood was taken from a tail caudal vein, and about 200 μl of the blood was put into an EDTA tube while preventing it from clotting, followed by measurement of the number of lymphocytes in blood. The number of lymphocytes was analyzed by a hematological examination device, Hemoanalyzer. The doses of the test compounds were 3 mg/kg for Example 52, 94, 108, 117, 142, 145, 146, 148 and 149 compounds, and 1 mg/kg for Example 150, 151, 153, 154, 155, 158, 159 and 161 compounds.

## CC(C)n1nc(Cl)c2cc(COc3ccc4c(c3)CCC(CN3CC[C@@H](C(=O)O)C3)=C4Cl)ccc21 [Example 151, (R)-1-[1-chloro-6-(3-chloro-1-isopropyl-1H-indazol-5-ylmethoxy)-3,4-dihydro-naphthalen-2-ylmethyl]-pyrrolidine-3-carboxylic acid]
[1]
  EC50: 11 nM
[2]
  Lymphocyte count (degree of decrease in lymphocyte number): −80%

## CC(C)n1nc(Cl)c2cc(COc3ccc4c(c3)CCC(CN3CCC(C(=O)O)CC3)=C4Cl)ccc21 [Example 153, 1-[1-chloro-6-(3-chloro-1-isopropyl-1H-indazol-5-ylmethoxy)-3,4-dihydro-naphthalen-2-ylmethyl]-piperidine-4-carboxylic acid]
[1]
  EC50: 11 nM
[2]
  Lymphocyte count (degree of decrease in lymphocyte number): −80%

## CC(C)n1nc(Cl)c2cc(COc3ccc4c(c3)CCC(CN3CCC(F)(C(=O)O)CC3)=C4Cl)ccc21 [Example 154, 1-[1-chloro-6-(3-chloro-1-isopropyl-1H-indazol-5-ylmethoxy)-3,4-dihydro-naphthalen-2-ylmethyl]-4-fluoro-piperidine-4-carboxylic acid]
[1]
  EC50: 17 nM
[2]
  Lymphocyte count (degree of decrease in lymphocyte number): −65%

## CC(C)n1nc(Cl)c2cc(COc3ccc4c(c3)CCC(CN3CCCC(C(=O)O)C3)=C4Cl)ccc21 (centres unmarked) [Example 155, 1-[1-chloro-6-(3-chloro-1-isopropyl-1H-indazol-5-ylmethoxy)-3,4-dihydro-naphthalen-2-ylmethyl]-piperidine-3-carboxylic acid]
[1]
  EC50: 27 nM
[2]
  Lymphocyte count (degree of decrease in lymphocyte number): −75%

## CC(C)n1nc(Cl)c2cc(COc3ccc4c(c3)CCC(CN3CCCC(F)(C(=O)O)C3)=C4Cl)ccc21 (centres unmarked) [Example 158, 1-[1-chloro-6-(3-chloro-1-isopropyl-1H-indazol-5-ylmethoxy)-3,4-dihydro-naphthalen-2-ylmethyl]-3-fluoro-piperidine-3-carboxylic acid]
[1]
  EC50: 14 nM
[2]
  Lymphocyte count (degree of decrease in lymphocyte number): −30%

## CC(C)n1nc(Cl)c2cc(COc3ccc4c(c3)CCC(CN3CCC(C(=O)O)CC3)=C4Cl)cnc21 [Example 159, 1-[1-chloro-6-(3-chloro-1-isopropyl-1H-pyrazolo[3,4-b]pyridin-5-ylmethoxy)-3,4-dihydro-naphthalen-2-ylmethyl]-piperidine-4-carboxylic acid]
[1]
  EC50: 12 nM
[2]
  Lymphocyte count (degree of decrease in lymphocyte number): −80%

## CC(C)n1nc(Cl)c2cc(COc3ccc4c(c3)CCC(CN3CCC(F)(C(=O)O)C3)=C4Cl)ccc21 (centres unmarked) [Example 161, 1-[1-chloro-6-(3-chloro-1-isopropyl-1H-indazol-5-ylmethoxy)-3,4-dihydro-naphthalen-2-ylmethyl]-3-fluoro-pyrrolidine-3-carboxylic acid]
[1]
  EC50: 3 nM
[2]
  Lymphocyte count (degree of decrease in lymphocyte number): −65%
